Experimental data as given in ChEMBL document CHEMBL4425159, “Design, synthesis and antimalarial evaluation of novel thiazole derivatives” (Bioorg Med Chem Lett, 2016).

Legend:
[1] = tested on: Plasmodium falciparum; experiment: Antimalarial activity against chloroquine sensitive-Plasmodium falciparum 3D7 assessed as growth inhibition preincubated for 24 hrs followed by [3H]-hypoxanthine incorporation measured after 24 hrs by scintillation counting; type: functional, organism-based
[2] = tested on: HepG2; experiment: Cytotoxicity against human HepG2 cells assessed as cell growth inhibition; type: cell-based
[3] = Lipophilicity, log D of the compound by chromatographic method; type: physicochemical

Structure (SMILES) | IC50 [1] | further results
Cc1ccc(NC(=O)c2nc(N3CCN(C)CC3)sc2C(C)C)c(Cl)c1 | 3.27 µM | –
CC(C)c1sc(N2CCN(C)CC2)nc1C(=O)Nc1cnccc1Cl | 1.7 µM | –
Cc1cc(F)ccc1NC(=O)c1nc(N2CCN(C)CC2)sc1C(C)C | 0.72 µM | –
CC(C)c1sc(N2CCN(C)CC2)nc1C(=O)Nc1ccccc1F | 0.26 µM | –
CC(C)c1sc(N2CCN(C)CC2)nc1C(=O)Nc1ccc(F)cc1 | > 5 µM | –
CC(C)c1sc(N2CCN(C)CC2)nc1C(=O)Nc1c(F)cccc1F | > 5 µM | –
CC(C)c1sc(N2CCN(C)CC2)nc1C(=O)Nc1cccc(Cl)n1 | 0.35 µM | –
CC(C)c1sc(N2CCN(C)CC2)nc1C(=O)Nc1ccc(C(F)(F)F)cc1Cl | > 5 µM | –
CC(C)c1sc(N2CCN(C)CC2)nc1C(=O)Nc1ccccc1C(N)=O | > 5 µM | –
CC(C)c1sc(N(C)CCN(C)C)nc1C(=O)Nc1ccc(F)cc1C(F)(F)F | 3.15 µM | –
CC(C)c1sc(N(C)CCO)nc1C(=O)Nc1ccc(F)cc1C(F)(F)F | 3.26 µM | –
CC(C)c1sc(N2CCN(C)CC2)nc1C(=O)Nc1cccnc1 | > 5 µM | –
COCCN(C)c1nc(C(=O)Nc2ccc(F)cc2C(F)(F)F)c(C(C)C)s1 | 0.59 µM | –
CC(C)c1sc(N2CCN(C)CC2)nc1C(=O)Nc1ccccc1C#N | 0.098 µM | IC50 [2]: 32 µM
CC(C)c1sc(N2CCN(C)CC2)nc1C(=O)Nc1c(Cl)cc(F)cc1Cl | > 5 µM | –
CC(C)c1sc(N2CCN(C)CC2)nc1C(=O)Nc1c(Cl)cc(C(F)(F)F)cc1Cl | > 5 µM | –
CC(C)c1sc(N2CCN(C)CC2)nc1C(=O)Nc1ccccc1S(N)(=O)=O | > 5 µM | –
CC(C)c1sc(N2CCN(C)CC2)nc1C(=O)Nc1ccc(F)cc1Cl | 0.058 µM | IC50 [2]: > 100 µM
CC(C)c1sc(N2CCN(C)CC2)nc1C(=O)Nc1ccccc1C(F)(F)F | 0.031 µM | IC50 [2]: 50 µM
CC(C)c1sc(N2CCOCC2)nc1C(=O)Nc1ccc(F)cc1C(F)(F)F | 0.102 µM | –
CC(C)c1sc(N2CCN(C)CC2)nc1C(=O)Nc1cc(F)cc(F)c1 | > 5 µM | –
CC(C)c1sc(N2CCN(C)CC2)nc1C(=O)Nc1ccc(F)cc1F | 1.19 µM | –
CC(C)c1sc(N2CCN(C)CC2)nc1C(=O)Nc1ccccc1OC(F)(F)F | 0.034 µM | IC50 [2]: > 100 µM
COc1ccccc1NC(=O)c1nc(N2CCN(C)CC2)sc1C(C)C | 0.35 µM | –
CC(C)c1sc(N2CCN(C)CC2)nc1C(=O)Nc1ccccc1Cl | 0.058 µM | IC50 [2]: > 100 µM
CC(C)c1sc(N2CCN(C)CC2)nc1C(=O)Nc1ccc(F)cc1C(F)(F)F | 0.024 µM | logD [3]: 9.06; IC50 [2]: 78 µM
CC(C)c1sc(N2CCN(C)CC2)nc1C(=O)Nc1ccccc1CO | > 5 µM | –
CC(C)c1sc(N2CCN(C)CC2)nc1C(=O)Nc1cccnc1Cl | 0.08 µM | chromatographic logD [3]: 7.8; IC50 [2]: > 100 µM
CC(C)c1sc(N2CCN(C)CC2)nc1C(=O)Nc1ncccc1Cl | > 5 µM | –
